From ChEMBL document CHEMBL1201862, “PubChem BioAssay data set” (2004)
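Cells were grown in 96-well plates and exposed to each compound for 48 hours at five concentrations; endpoints were interpolated linearly between bracketing concentrations, or set to the highest concentration if not reached. GI50 is the concentration that inhibits growth by half.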 Activity calls are given as the source filed them. Rule as the data show it: active = GI50 up to about 1.1 µM and inactive = higher.

Columns and labels:
Assay in all cases: inhibition of tumour cell growth, NCI panel, 48 h
[1] = test system: KM12
[2] = test system: UO-31
[3] = test system: SF-539
[4] = test system: A498
[5] = test system: IGROV-1
[6] = test system: SF-268
[7] = test system: OVCAR-8
[8] = test system: HOP-92
[9] = test system: HCT-116
[10] = test system: SK-MEL-5
[11] = test system: 786-0
[12] = test system: SW-620
[13] = test system: MOLT-4
[14] = test system: OVCAR-4
[15] = test system: NCI-H522
[16] = test system: RXF 393
[17] = test system: COLO 205
[18] = test system: SK-MEL-2

Measured: GI50

c1ccc(N2CCN(CCN3CCc4c([nH]c5ccccc45)C3c3cccnc3)CC2)cc1 (stereo not drawn)
inactive: [1] > 100 µM | [2] 23.8 µM | [3] 20.5 µM | [4] > 100 µM | [5] > 100 µM | [6] > 100 µM | [7] 88.1 µM | [8] 14.4 µM | [9] 46.8 µM | [10] > 100 µM | [11] 33.1 µM | [12] > 100 µM | [13] > 100 µM | [14] > 100 µM | [15] > 100 µM

CP(=O)(CCSc1ccccc1)c1ccccc1 (stereo not drawn)
inactive: [16] > 100 µM | [2] > 100 µM | [3] > 100 µM | [4] > 100 µM | [17] > 100 µM | [5] > 100 µM | [6] > 100 µM | [7] > 100 µM | [8] > 100 µM | [9] > 100 µM | [10] > 100 µM | [11] > 100 µM | [12] > 100 µM | [13] > 100 µM | [14] > 100 µM

CSC(C1c2ccccc2N(C)c2[nH]c(=O)n(C)c(=O)c21)S(=O)(=O)c1ccc(C)cc1 (stereo not drawn)
inactive: [2] > 100 µM | [3] 42.7 µM | [4] > 100 µM | [17] > 100 µM | [5] > 100 µM | [6] > 100 µM | [7] > 100 µM | [8] > 100 µM | [9] 68.2 µM | [18] > 100 µM | [10] > 100 µM | [11] > 100 µM | [12] > 100 µM | [13] 40 µM | [14] > 100 µM | [15] 20.1 µM

CC(=O)OC1[C@H]2c3cc4c(cc3CN3CCC(C[C@@H]1OC(C)=O)C23)OCO4 (stereo partly drawn)
inactive: [16] > 75 µM | [1] > 75 µM | [2] > 75 µM | [3] > 75 µM | [17] > 75 µM | [5] > 75 µM | [6] > 75 µM | [7] > 75 µM | [9] > 75 µM | [11] > 75 µM | [12] > 75 µM | [13] > 75 µM | [15] > 75 µM

[O-]c1c2c(nn1-c1ccc(Cl)cc1)c1ccccc1c[n+]2Cc1ccccc1
inactive: [16] 27 µM | [1] > 100 µM | [2] > 100 µM | [3] 80.4 µM | [17] > 100 µM | [5] 62.4 µM | [6] 95.3 µM | [7] 65.9 µM | [9] > 100 µM | [18] > 100 µM | [10] 58.7 µM | [11] 33.3 µM | [12] > 100 µM | [13] > 100 µM | [14] 46.2 µM | [15] 58.9 µM

O=[N+]([O-])c1ccc(-c2ccc(-c3csc(Nc4ccccc4)n3)o2)cc1
inactive: [1] 19.3 µM | [2] 18.7 µM | [3] 18.8 µM | [4] 17.9 µM | [17] 20.9 µM | [5] 25.1 µM | [6] 18.2 µM | [7] 19.5 µM | [8] 19.5 µM | [9] 21.5 µM | [18] 19.2 µM | [10] 19.5 µM | [11] 17.1 µM | [12] 15.6 µM | [13] 3.62 µM | [14] 17.3 µM | [15] 14.6 µM

O=C(Nc1ccc(Cl)c(C(F)(F)F)c1)C(=O)C(C(=O)/C=C/c1ccccc1)C1OC(=O)c2ccccc21 (stereo not drawn)
inactive: [16] 93.5 µM | [1] > 100 µM | [2] > 100 µM | [4] > 100 µM | [17] > 100 µM | [5] > 100 µM | [6] > 100 µM | [7] > 100 µM | [8] > 100 µM | [9] 33.1 µM | [11] > 100 µM | [12] > 100 µM | [13] > 100 µM | [14] > 100 µM | [15] 63.1 µM

O=C(/C=N/c1ccccc1C(=O)[O-])c1cccs1.O=C(/C=N/c1ccccc1C(=O)[O-])c1cccs1.[Zn+2]
inactive: [1] > 100 µM | [2] > 100 µM | [3] 42.5 µM | [4] > 100 µM | [17] > 100 µM | [5] 31.9 µM | [6] 27.4 µM | [7] 36.1 µM | [8] 19.6 µM | [9] > 100 µM | [18] 25.8 µM | [11] > 100 µM | [12] 67.5 µM | [13] 34 µM | [15] 21.1 µM

CCOP(=O)(OCC)/C(C#N)=C/c1ccco1
inactive: [1] > 100 µM | [2] > 100 µM | [3] > 100 µM | [4] > 100 µM | [17] > 100 µM | [5] > 100 µM | [6] > 100 µM | [7] > 100 µM | [8] > 100 µM | [9] > 100 µM | [18] > 100 µM | [10] > 100 µM | [11] > 100 µM | [12] > 100 µM | [13] > 100 µM | [14] > 100 µM | [15] > 100 µM

COC(=O)/C=C1\CCC2[C@@H](C(=O)CC3[C@]2(C)CCC[C@@]3(C)C(=O)OC)C1C (stereo partly drawn)
inactive: [1] 17.1 µM | [2] 21.7 µM | [3] 25.2 µM | [4] 34.7 µM | [17] 17.3 µM | [5] 24.6 µM | [6] 19.7 µM | [7] 15.1 µM | [8] 21 µM | [9] 18.5 µM | [18] 18.2 µM | [10] 13.5 µM | [11] 31.3 µM | [12] 26.6 µM | [13] 6.37 µM | [14] 22.5 µM | [15] 16.5 µM

O=C(CSc1nnc(Cc2ccccc2)o1)Nc1ccc([N+](=O)[O-])cc1
inactive: [16] > 100 µM | [1] > 100 µM | [2] 74.1 µM | [3] > 100 µM | [4] > 100 µM | [17] > 100 µM | [5] > 100 µM | [6] > 100 µM | [7] > 100 µM | [9] > 100 µM | [18] > 100 µM | [10] > 100 µM | [11] > 100 µM | [13] 87.3 µM | [14] > 100 µM | [15] 82.2 µM

CCOC(=O)/C(=C\c1cccs1)P(=O)(OCC)OCC
inactive: [16] 15.1 µM | [1] 17.1 µM | [2] 19.7 µM | [3] 20.8 µM | [17] 16 µM | [6] 24.1 µM | [7] 25.4 µM | [8] 27.6 µM | [9] 19.2 µM | [18] 16.4 µM | [10] 17 µM | [11] 21.9 µM | [12] 20 µM | [13] 25.8 µM | [14] 19 µM | [15] 14.2 µM
